Results taken from DBAASP.
Converted amounts (≈) assume the structure as drawn. “And” between values parts separate entries of the source, which are not always exact repeats. Equal values may be shown once.

What was measured:
Experiment in all cases: ≥ marks a high value that may be exact or a test limit, other limits are often not marked, values filed in µg/mL are converted to µM
[1] = test system: Escherichia coli ATCC 25922
[2] = test system: Pseudomonas aeruginosa PAO1
[3] = test system: Staphylococcus aureus USA 300
[4] = test system: Klebsiella pneumoniae ATCC 13883
[5] = test system: Staphylococcus aureus ATCC 25923
[6] = test system: Candida albicans ATCC 2002
[7] = test system: Pseudomonas aeruginosa CMCCB 10104
[8] = test system: Candida albicans ATCC 90028
[9] = test system: Staphylococcus aureus NCTC 8325
Micrococcus luteus = test system: Micrococcus luteus
Staphylococcus aureus = test system: Staphylococcus aureus
Bacillus subtilis 168 = test system: Bacillus subtilis 168
[10] = test system: Salmonella enterica subsp. enterica serovar Typhimurium ATCC 14028
[11] = test system: Acinetobacter baumannii ATCC 19606
[12] = test system: Escherichia coli DH5alpha
Bacillus subtilis = test system: Bacillus subtilis

| MIC [1] | MIC [2] | MIC [3] | MIC [4] | MIC [8] | MIC [9] | SMILES | also measured |
| --- | --- | --- | --- | --- | --- | --- | --- |
| 3.1 µM (≈ 4.02 µg/mL) | > 25 µM | 0.78 µM (≈ 1.01 µg/mL) | 3.1 µM (≈ 4.02 µg/mL) | – | – | CC(C)C[C@H](NC(=O)[C@H](CC(C)C)NC(=O)[C@H](CCCCN)NC(=O)CNC(=O)[C@H](CC(C)C)NC(=O)[C@H](CC(C)C)NC(=O)[C@H](CO)NC(=O)[C@H](CC(C)C)NC(=O)[C@H](C)NC(=O)[C@H](CO)NC(=O)[C@H](CC(C)C)NC(=O)[C@H](CC(C)C)NC(=O)CN)C(N)=O [GLLSALSLLGKLL] | – |
| > 82.4 µM | – | – | – | – | – | CC(C)C[C@@H]1NC(=O)[C@H](CCCCN)NC(=O)[C@H](CC(=O)O)NC(=O)[C@H](CC(N)=O)NC(=O)[C@H](Cc2ccc(O)cc2)NC(=O)[C@@H](NC(=O)[C@H](CCCCN)NC(=O)[C@@H]2CCCN2C(=O)[C@H](C)NC(=O)[C@H](CCCCN)NC(=O)[C@H](CS)NC(=O)[C@H](CCCCN)NC(=O)[C@H](CC(C)C)NC(=O)[C@H](CCCCN)NC(=O)[C@H](CC(C)C)NC(=O)[C@H](CCCCN)NC(=O)[C@H](CCC(=O)O)NC(=O)[C@@H](N)CCCCN)CSSC[C@@H](C(=O)N[C@H](C(=O)O)[C@@H](C)O)NC(=O)[C@H](C)NC1=O [KEKLKLKCKAPKCYNDKLACT] | MIC [5]: > 82.4 µM; MIC [6]: ≥ 82.4 µM; MIC [7]: ≥ 82.4 µM |
| 4.4 µM (≈ 9.25 µg/mL) | > 50 µM | 3.1 µM (≈ 6.51 µg/mL) | 3.1 µM (≈ 6.51 µg/mL) | – | – | CC[C@H](C)[C@H](NC(=O)[C@H](CCCCN)NC(=O)[C@H](CCC(N)=O)NC(=O)[C@@H](NC(=O)[C@@H](NC(=O)[C@H](CCCCN)NC(=O)[C@H](CCCN=C(N)N)NC(=O)[C@H](Cc1ccccc1)NC(=O)CN)[C@@H](C)CC)C(C)C)C(=O)N[C@@H](CCCN=C(N)N)C(=O)N[C@@H](CC(=O)O)C(=O)N[C@@H](Cc1ccccc1)C(=O)N[C@@H](CC(C)C)C(=O)N[C@@H](CCCN=C(N)N)C(=O)N[C@@H](CC(N)=O)C(=O)N[C@@H](CC(C)C)C(=O)N[C@H](C(N)=O)C(C)C [GFRKIVQKIRDFLRNLV] | – |
| – | – | – | – | ≥ 35 µM | 8 µM (≈ 20.2 µg/mL) | CC[C@H](C)[C@@H]1NC(=O)[C@H](CC(C)C)NC(=O)[C@@H](NC(=O)[C@H](CC(C)C)NC(=O)[C@H](CC(C)C)NC(=O)[C@H](CCCCN)NC(=O)[C@@H]2CCCN2C(=O)CNC(=O)[C@H](CC(C)C)NC(=O)[C@@H](NC(=O)[C@H](C)NC(=O)[C@H](C)NC(=O)[C@H](CC(C)C)NC(=O)[C@H](CO)NC(=O)[C@H](C)NC(=O)[C@H](CC(C)C)NC(=O)[C@@H](NC(=O)[C@@H]2CCCN2C(=O)[C@H](CC(C)C)NC(=O)[C@@H](N)Cc2ccccc2)[C@@H](C)CC)[C@@H](C)O)CSSC[C@@H](C(=O)O)NC(=O)[C@H](CCCCN)NC(=O)[C@H](CCCCN)NC(=O)[C@H]([C@@H](C)O)NC1=O [FLPILASLAATLGPKLLCLITKKC] | – |
| 1 µM (≈ 3.84 µg/mL) | – | – | – | 29 µM (≈ 111 µg/mL) | 1 µM (≈ 3.84 µg/mL) | CC[C@H](C)[C@@H]1NC(=O)[C@H](CCCCN)NC(=O)[C@@H](NC(=O)[C@H](C)NC(=O)[C@@H](NC(=O)[C@H](CC(C)C)NC(=O)[C@H](CC(=O)O)NC(=O)[C@@H](NC(=O)CNC(=O)[C@H](CC(C)C)NC(=O)[C@H](CCCCN)NC(=O)[C@@H](NC(=O)[C@H](CC(C)C)NC(=O)[C@H](CC(=O)O)NC(=O)[C@H](CCCCN)NC(=O)CNC(=O)[C@H](CC(C)C)NC(=O)CNC(=O)[C@H](CCCCN)NC(=O)[C@H](CO)NC(=O)[C@H](C)NC(=O)[C@H](Cc2ccccc2)NC(=O)[C@H](CCCCN)NC(=O)[C@H](C)NC(=O)[C@H](C)NC(=O)CNC(=O)[C@H](CCCN=C(N)N)NC(=O)[C@H](CC(C)C)NC(=O)[C@@H](NC(=O)[C@H](CO)NC(=O)[C@H](Cc2ccccc2)NC(=O)[C@H](CC(C)C)NC(=O)CN)[C@@H](C)CC)[C@@H](C)O)C(C)C)C(C)C)CSSC[C@@H](C(=O)O)NC(=O)[C@H](CCC(N)=O)NC(=O)[C@H](CCCCN)NC(=O)[C@H](CO)NC1=O [GLFSILRGAAKFASKGLGKDLTKLGVDLVACKISKQC] | – |
| 26 µM (≈ 67.4 µg/mL) | – | – | – | 6 µM (≈ 15.5 µg/mL) | 9 µM (≈ 23.3 µg/mL) | CC[C@H](C)[C@@H]1NC(=O)[C@H](C)NC(=O)[C@@H](NC(=O)[C@H](Cc2ccccc2)NC(=O)[C@@H](NC(=O)[C@H](CCCCN)NC(=O)[C@@H]2CCCN2C(=O)[C@H](CC(C)C)NC(=O)[C@H](Cc2ccccc2)NC(=O)[C@H](CC(N)=O)NC(=O)[C@H](C)NC(=O)[C@H](C)NC(=O)[C@H](CC(C)C)NC(=O)CNC(=O)[C@H](C)NC(=O)[C@@H](NC(=O)[C@H](CC(C)C)NC(=O)[C@@H]2CCCN2C(=O)[C@H](CC(C)C)NC(=O)[C@@H](N)Cc2ccccc2)[C@@H](C)CC)[C@@H](C)CC)CSSC[C@@H](C(=O)O)NC(=O)[C@H](CCCCN)NC(=O)[C@H](CCCCN)NC(=O)[C@H]([C@@H](C)O)NC1=O [FLPLIAGLAANFLPKIFCAITKKC] | – |
| 3.1 µM (≈ 4.02 µg/mL) | > 25 µM | 0.78 µM (≈ 1.01 µg/mL) | 3.1 µM (≈ 4.02 µg/mL) | – | – | CC(C)C[C@H](NC(=O)[C@H](C)NC(=O)[C@H](CCCCN)NC(=O)CNC(=O)[C@H](CC(C)C)NC(=O)[C@H](CC(C)C)NC(=O)[C@H](CO)NC(=O)[C@H](CC(C)C)NC(=O)[C@H](CC(C)C)NC(=O)[C@H](CO)NC(=O)[C@H](CC(C)C)NC(=O)[C@H](CC(C)C)NC(=O)CN)C(N)=O [GLLSLLSLLGKAL] | – |
| 7 µM (≈ 17.7 µg/mL) | – | – | – | 7 µM (≈ 17.7 µg/mL) | 3 µM (≈ 7.61 µg/mL) | CC[C@H](C)[C@H](NC(=O)[C@H](C)NC(=O)[C@@H]1CCCN1C(=O)[C@H](CC(C)C)NC(=O)[C@@H](N)Cc1ccccc1)C(=O)N[C@@H](C)C(=O)NCC(=O)N[C@H](C(=O)N[C@@H](C)C(=O)N[C@@H](C)C(=O)N[C@@H](CCCCN)C(=O)N[C@@H](Cc1ccccc1)C(=O)N[C@@H](CC(C)C)C(=O)N1CCC[C@H]1C(=O)N[C@@H](CCCCN)C(=O)N[C@H](C(=O)N[C@@H](Cc1ccccc1)C(=O)N[C@H]1CSSC[C@@H](C(=O)O)NC(=O)[C@H](CCCCN)NC(=O)[C@H](CCCCN)NC(=O)[C@H](CO)NC(=O)[C@H]([C@@H](C)CC)NC(=O)[C@H](C)NC1=O)[C@@H](C)CC)C(C)C [FLPAIAGVAAKFLPKIFCAISKKC] | – |
| 31.4 µM (≈ 62.5 µg/mL) | – | – | – | – | – | CC[C@H](C)[C@H](NC(=O)[C@H](Cc1ccccc1)NC(=O)[C@H](CCCCN)NC(=O)[C@H](CCCCN)NC(=O)[C@H](CCC(=O)O)NC(=O)[C@H](CC(N)=O)NC(=O)[C@H](Cc1ccc(O)cc1)NC(=O)[C@H](CCCCN)NC(=O)[C@H](CC(N)=O)NC(=O)[C@H](CC(C)C)NC(=O)[C@H](CCC(=O)O)NC(=O)[C@H](CC(N)=O)NC(=O)[C@H](CC(C)C)NC(=O)[C@H](Cc1ccccc1)NC(=O)[C@H](CO)NC(=O)[C@@H](N)[C@@H](C)O)C(=O)O [TSFLNELNKYNEKKFI] | MIC (Micrococcus luteus): 31.4 µM (≈ 62.5 µg/mL); MIC (Staphylococcus aureus): 4.17 µM (≈ 8.3 µg/mL); MIC (Bacillus subtilis 168): 15.7 µM (≈ 31.2 µg/mL) |
| 7.3 µM and 8.9 µM | 20.7 µM and 23.7 µM | – | 30 µM (≈ 51.2 µg/mL) | – | – | CC(C)C[C@H](NC(=O)[C@H](CCCCN)NC(=O)[C@H](CCCCN)NC(=O)[C@H](C)NC(=O)[C@H](Cc1c[nH]c2ccccc12)NC(=O)CNC(=O)[C@H](CCCCN)NC(=O)[C@@H](N)CCCCN)C(=O)N[C@@H](C)C(=O)N[C@@H](Cc1ccccc1)C(=O)N[C@@H](C)C(=O)N[C@@H](Cc1ccccc1)C(=O)NCC(=O)N[C@@H](CCCCN)C(=O)N[C@@H](CCCCN)C(=O)O [KKGWAKKLAFAFGKK] | MIC [10]: 22.2 µM (≈ 37.9 µg/mL); MIC [11]: > 30 µM; MIC [5]: > 30 µM |
| – | – | – | 13.1 µM (≈ 49.9 µg/mL) | – | – | CC[C@H](C)[C@@H]1NC(=O)CNC(=O)[C@H](Cc2c[nH]c3ccccc23)NC(=O)[C@@H]2CSSC[C@H](NC(=O)[C@H](C)N)C(=O)N[C@@H](CCC(N)=O)C(=O)N[C@@H](Cc3ccccc3)C(=O)N[C@@H](Cc3c[nH]c4ccccc34)C(=O)N[C@@H](CO)C(=O)N[C@H]3CSSC[C@H](NC(=O)[C@H](Cc4ccc(O)cc4)NC(=O)[C@H](CCCCN)NC(=O)[C@H](Cc4ccc(O)cc4)NC(=O)[C@H](CCC(N)=O)NC1=O)C(=O)N[C@@H](CCC(N)=O)C(=O)N[C@H](C(=O)N[C@@H](CCC(N)=O)C(=O)O)CSSC[C@H](NC(=O)[C@H](CO)NC(=O)[C@H](CO)NC(=O)[C@H](CC(N)=O)NC3=O)C(=O)N[C@@H]([C@@H](C)CC)C(=O)N[C@@H](CO)C(=O)N[C@@H](CCCN=C(N)N)C(=O)NCC(=O)N[C@@H](Cc1ccc(O)cc1)C(=O)N[C@@H](CCCN=C(N)N)C(=O)N[C@@H](CCC(N)=O)C(=O)NCC(=O)N[C@@H](Cc1ccc(O)cc1)C(=O)N2 [ACQFWSCNSSCISRGYRQGYCWGIQYKYCQCQ] | MIC [12]: 13.1 µM (≈ 49.9 µg/mL); MIC (Bacillus subtilis): 13.1 µM (≈ 49.9 µg/mL); MIC [5]: > 13.1 µM |

| SMILES | MIC [1] | MIC [2] | MIC [3] | MIC [4] | MIC [8] | MIC [9] | also measured |
| --- | --- | --- | --- | --- | --- | --- | --- |
| CC(C)C[C@H](NC(=O)[C@H](CC(C)C)NC(=O)[C@H](CCCCN)NC(=O)[C@H](CC(C)C)NC(=O)CNC(=O)[C@H](CC(C)C)NC(=O)[C@H](CO)NC(=O)[C@H](CC(C)C)NC(=O)[C@H](CC(C)C)NC(=O)[C@H](CC(C)C)NC(=O)[C@H](CO)NC(=O)[C@H](CC(C)C)NC(=O)[C@@H](N)CCCCN)C(N)=O [KLSLLLSLGLKLL] | > 25 µM | > 25 µM | 1.6 µM (≈ 2.26 µg/mL) | 25 µM (≈ 35.2 µg/mL) | – | – | – |
